≈ marks a conversion by molar mass, not a printed value. Structures can show the parent of a compound that is named as a salt.
Experiments:
[1] = Dissolution of bendamustine HCl in DMSO/water at 15° C. (Example 6); type: physicochemical
Procedure: 37.5 ml of water was placed in a glass beaker and mixing was initiated at about 350 rpm. 2.1266 g mannitol added and mixed for about 5 minutes. About 12.5 ml of DMSO was added and solution brought to about 15° C. 1.2672 g of bendamustine HCl added and mixed. A milky solution was the result.
The sample was not used for analysis purposes, however, 3 ml of DMSO was added and the sample was cloudy. Another 3 ml of DMSO was added and the solution started to clear up. The addition of DMSO corresponds to about 35% DMSO.

[2] = cited from earlier work
[3] = Water uptake of anhydrous Bendamustine HCl; type: physicochemical
Procedure: Bendamustine HCl was an anhydrous form with a water content level of nmt 1.0%. The Bendamustine HCl used herein was not the Form 1 polymorph and was at least similar to an anhydrous version of the Form 2 polymorph. A sample of Bendamustine HCl anhydrous (with a thickness of about 2 mm was is saturated in water after 60 minutes and the water level reached about 4.7-4.8%. Exposing the Bendamustine HCl to atmospheric conditions for 1 hour caused the % water to increase to about 4.5%, corresponding to the monohydrate form (MW Bendamustine HCl=394.7 g/mol and H2O=18 g/mol; [(394.7+18)/394.7]100=104.6%).

| Structure (SMILES) | solubility in 75% water ([1]; 25 mg/ml with mannitol 42.5 mg/ml in DMSO 25% v/v in water, about 15° C. (sample 6IB130709-1), a milky solution resulted) | solubility limit in the preferred Treanda® formulation ([2]; at 5° C., disclosed in U.S. Pat. No. 8,436,190B2) [mg/mL] | water level when saturated in water ([3]; anhydrous sample, thickness about 2 mm, after 60 minutes) | % water after exposure to atmospheric conditions ([3]; exposure for 1 hour, corresponds to the monohydrate form) | DMSO content optimal for dissolution ([1]; at 15° C., DMSO added to sample 6IB130709-1 until the solution started to clear up) | solubility in DMSO ([2]; at 25° C., has been reported) [mg/mL] | solubility in water ([2]; at 25° C., has been reported) [mg/mL] |
| --- | --- | --- | --- | --- | --- | --- | --- |
| Cn1c(CCCC(=O)O)nc2cc(N(CCCl)CCCl)ccc21 [Bendamustine HCl] | not found to be soluble | 27 | 4.7-4.8% | about 4.5% |  |  |  |
| Cn1c(CCCC(=O)O)nc2cc(N(CCCl)CCCl)ccc21 [bendamustine, 4-[5-[Bis(2-chloroethyl)amino]-1-methylbenzimidazol-2-yl]butanoic acid] |  |  |  |  | more than 35% | 79 (≈ 221 mM) | 15 (≈ 41.9 mM) |
